Columns and labels:
Type in all cases: binding
AstC [1] = molecular target: T1, AstC (Escherichia coli, UniProt P77581); experiment: X-ray crystal structure, […] Å; details: covalent; internal aldimine with Lys252 at dimer interface; sodium malonate, Tris pH 8.0
T1 construct: full-length, native untagged, no plasmid; purified from E. coli BL21(DE3) by Ni-NTA and size exclusion as apo-protein, reconstituted with PLP; about 406 residues; dimer

AstC [2] = molecular target: T1, AstC; experiment: differential scanning fluorimetry, SYPRO dye; details: Tris buffered saline; apo-protein plus PLP (about 10-fold excess) versus apo-protein
AstC [3] = molecular target: T1, AstC; experiment: X-ray crystal structure of co-crystals, […] Å; details: covalent to PLP cofactor (external aldimine); PLP present; salt bridge to Arg141; ammonium sulfate pH 7-9

T1 sequence (P77581 whole entry): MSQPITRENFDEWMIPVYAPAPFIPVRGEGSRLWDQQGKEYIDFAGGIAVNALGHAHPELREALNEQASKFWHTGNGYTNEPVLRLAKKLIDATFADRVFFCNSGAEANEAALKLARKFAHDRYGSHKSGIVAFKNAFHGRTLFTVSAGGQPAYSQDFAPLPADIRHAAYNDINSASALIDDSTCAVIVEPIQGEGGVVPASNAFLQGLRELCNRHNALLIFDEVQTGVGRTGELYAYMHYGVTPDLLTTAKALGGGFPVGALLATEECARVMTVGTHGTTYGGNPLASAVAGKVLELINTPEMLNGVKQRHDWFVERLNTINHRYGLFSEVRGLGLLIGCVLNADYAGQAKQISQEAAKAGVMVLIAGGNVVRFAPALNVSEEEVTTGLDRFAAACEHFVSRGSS

Row | Compound | X-ray crystal structure, 2.20 Å (AstC [1]) | apparent Tm (holo-AstC; apo-AstC 43.5) (AstC [2]) | X-ray crystal structure of co-crystals, 2.45 Å (AstC [3])
1 | Cc1ncc(COP(=O)(O)O)c(C=O)c1O [PLP, pyridoxal phosphate] | continuous density between Lys252 and the PLP, indicating that the expected aldimine had formed | 46 °C | –
2 | NCCC[C@H](NC(=O)CCC(=O)O)C(=O)O [SO, succinylornithine] | – | – | continuous electron density between PLP and SO was observed (see Figure 5C)

— publication PMC3590144, “Determination of the Structure of the Catabolic N-Succinylornithine Transaminase (AstC) from Escherichia coli” (PLoS ONE, 2013)
